Data published in US8039670B2, “Analogs of alpha galactosyceramide and uses thereof” (Ludwig Institute for Cancer Research, priority 2005, dated 2011).

Columns and labels:
[1] = tested on: IL-12p40 released by the DC; assay: IL-12p40 ELISA of supernatants of DC/iNKT co-cultures; assay type: cell-based, human; settings: DC/iNKT co-culture, 24 hours
Description: (§1) Different analogs of α-GalCer as indicated or LPS were added to co-cultures of human DC and iNKT cells. (A) Maturation of the DC was assessed after 40 h, gating on CD11c positive cells. Histograms indicate the CD83 and CD86 profiles of DC from different treatments; the percentages indicate the percentage of CD83hi mature DC and the numbers in parenthesis, the mean fluorescence intensity of the population contained within the labeled gate. DC and iNKT cells were co-cultured in the presence of different analogs of α-GalCer for 24 hours. Supernatants were analyzed using ELISA for the presence of (B) IL-12p40 released by the DC and (C) IFN-γ from the iNKT cells. […] Cells were co-cultured in the presence of the indicated concentration of analog and the percentages of DC with increased CD83/CD80 are shown. […] Viability of α-GalCer or analog-pulsed DC was assessed after 40 h co-culture in the presence of iNKT cells by flow cytometry. Cells were stained with propidium iodide and the percentage of live CD11c gated cells remaining in the culture are shown.
(§2) Human monocyte-derived DC were pulsed with 150 ng of different inositol analogs and co-cultured with iNKT cells for 24 h. […] Numbers indicate the mean fluorescence intensity of the histogram gated on CD11c^+ cells.
Release of IL-12p40 (and bioactive p75) by DC is a marker of activation and is thought to play an important role in regulating the profile of the immune response generated in response to those DC (Trinchieri et al, Nat Rev Immunol, 2003, 3; 133-46).

[2] = tested on: IFN-γ from the iNKT cells; assay: IFN-γ ELISA of supernatants of DC/iNKT co-cultures; assay type: cell-based, human; settings: analogs presented by DC
Description: as §1, §2

[3] = tested on: Melan A-specific CD8^+ T cells; assay: Expansion of Melan-A26-35 specific CD8+ T cells in human PBMC/PBL cultures (tetramer); assay type: cell-based; settings: for stimulation of antigen specific CTL responses in vitro: Example B, day 10, compared with αGal-Cer; for expansion of Melan-A26-35 specific T cells: human PBMC/PBL, FIG. 8
Description: Flow cytometry of day 10-15 cultures of PBMCs co-cultured with autologous irradiated APCs, pulsed with Melan-A26-35 peptide were stained with the tetrameter and anti-CD8^+-FITC.
In these experiments, T cell expansion was measured, by pulsing human DCs from PBLs with 100 nM of the known, immunogenic peptide MelanA26-35, […]. The peptide was added to the DCs together with syngeneic PBLs from the same donor. To detail these experiments more fully, samples of DCs were irradiated with 3000 rads followed by a 3 hour pulse with the peptide, in serum free medium.
The cells were then washed thoroughly and incubated with autologous, PBLs, at a 1:10 ratio, in RPMI 1640/5% human serum. Recombinant human IL-2 was added at 10 U/ml from day 4 to day 7. At day 10, following the addition of the PBLs, cells were analyzed. Cultured cells were stained with anti-CD8 and A2/MelanA25-35 tetramer. The percentage of MelanA specific CD8 T cells out of total CD8 positive cells was measured by FACS analysis.

OVA specific response = assay: Example C: OVA specific CTL response in mice injected with OVA and compound (tetramer); assay type: in vivo; settings: for OVA specific response: 400 μg OVA with 1 μg compound i.v.; for CTL response with MPL coinjected: coinjected with 25 μg MPL
Description: Subject animals, five mice per group, received an intravenous injection of 400 μg of ovalbumin (OVA) together with 1 μg of one of the compounds of the invention under examination or an equivalent volume of PBS diluted vehicle solution. A subset of mice were injected with 25 μg of the molecule MPL (Sigma-Aldrich; extracted from Salmonella Minnesota) solubilized in PBS.
Following the injections, blood was obtained from lateral tail veins, and PBLs were isolated, using standard methods. The PBLs were then stained, directly, […], with tetrameric, H-2 Kb/OVA 257-264, H-21 Kb complexes, following Palmowski, et al., J. Immunol., 168:4391-4398 (2002), incorporated by reference. The tetramers were prepared in accordance with Whilan, et al., J. Immunol., 163:4342-4348 (1999), incorporated by reference.

[4] = tested on: OVA specific IgG antibodies; assay: Example D: OVA specific IgG antibodies in serum of immunized mice (ELISA); assay type: in vivo; settings: ten days following immunization
Description: OVA protein coated ELISA plates, were prepared, using well known methods. Then, blood samples were taken, ten days following immunization, and serum was prepared.
The samples were taken from mice that had been immunized with OVA only, OVA and Compound 1, arabinitol ceramide, OVA and αGal-Cer, or OVA and Compound 2, glycerol ceramide. Additionally, mice were immunized with each of these schedules with MPL added. Serum IgG titers were measured by adding serial dilutions of mouse serum were detected using horseradish peroxidase (HRP) conjugated α-mouse IgG.

[5] = tested on: DCs obtained from the spleen; assay: Example E: phenotyping of spleen DCs after tail vein injection (CD86); assay type: in vivo, mice; settings: 1 μg tail vein, 24 h
Description: In brief, in each experiment, 1 μg of one of a selection of compounds of the invention was injected into the tail vein of subject mice. 24 h later spleen tissue was removed from the animals and gently teased through gauze into complete medium, supplemented with 5 mM of EDTA. Cells were enriched for CD11c by anti-CD11, magnetic beads using published techniques. Once enriched, they were assayed for maturation markers using antibody staining and flow cytometry. Non-specific staining was addressed by using an antibody specific for the Fc-RIII/II receptor.

human DC = assay: DC maturation in co-culture of human DC and iNKT cells (flow cytometry CD83, CD86, CD38); assay type: cell-based; settings: for DC maturation (upregulation of CD83, CD86 and CD38): human DC with iNKT cell clone, 24 hours; for concentration inducing maximal DC maturation: titration on DC, 48 h
Description: as §1, §2
Immature human DC were cultured in the presence of a human iNKT cell clone with or without analogs or vehicle at different concentrations.
To compare the functions of high affinity α-GalCer, intermediate affinity threitolceramide with the known, low affinity analog OCH, the three compounds were titrated onto DC and used to present to iNKT cells. Maturation of DC and DC viability were examined after 48 h.

E.G7-OVA tumour cells = assay: Prophylactic challenge with E.G7-OVA tumour cells after co-injection with OVA; assay type: in vivo, C57BL/6 mice; settings: injected with OVA, challenge 7 days later with 1×10^6 E.G7-OVA s.c.
Description: (A) C57BL/6 mice were co-injected with 1 μg α-GalCer or analog and 800 μg OVA. 6 days later blood samples taken from the tail vein were stained directly ex vivo with fluorescent […]-K^b tetramers and an anti-CD8 antibody and analyzed by flow cytometry. Data are shown as tetramer positive cells as a percentage of CD8^+ cells. (B) 7 days after injection, the mice were challenged in a prophylactic setting with 1×10^6 E.G7-OVA tumour cells s.c. and the size of the tumour monitored over subsequent days.

SMILES	IL-12p40 level relative to that seen with α-GalCer [1]	IFN-γ released by the iNKT cells [2]	stimulation of antigen specific CTL responses in vitro [3]	OVA specific response (OVA specific response)	OVA specific antibody response, adjuvant effect compared with MPL [4]	induction of CD86 on spleen DC in vivo [5]	DC maturation (upregulation of CD83, CD86 and CD38) (human DC)	concentration inducing maximal DC maturation (human DC)	tumour growth (E.G7-OVA tumour cells)	expansion of Melan-A26-35 specific T cells ([3]; listed as threitol-ceramide)	expansion of Melan-A26-35 specific T cells ([3]; listed as threitolceramide)	CTL response with MPL coinjected (OVA specific response)	IL-12p40 released [1]
CCCCCCCCCCCCCCCCCCCCCCCCCC(=O)N[C@@H](COC[C@@H](O)CO)[C@H](O)[C@H](O)CCCCCCCCCCCCCC [Compound 2, Glycerol Ceramide]	approximately 50%	~20 ng/mL	more potent stimulators of antigen specific CTL responses, in vitro, than αGal-Cer	Enhancement was weakest	less effective than MPL whilst still producing OVA specific antibodies	induced CD86 in vivo similarly							
CCCCCCCCCCCCCCCCCCCCCCCCCC(=O)N[C@@H](COC[C@H](O)[C@@H](O)CO)[C@H](O)[C@H](O)CCCCCCCCCCCCCC [Compound 3, Threitol Ceramide]	approximately 50%	~20 ng/mL	more potent stimulators of antigen specific CTL responses, in vitro, than αGal-Cer	enhancement of the OVA specific response		did not induce the DC86 marker significantly	more potent than glycerolceramide and arabinitolceramide	67 ng/mL	little or no tumour growth	superior than glycerol-ceramide	at least as effective as with DC pulsed with α-GalCer	enhancement of the CTL response	
CCCCCCCCCCCCCCCCCCCCCCCCCC(=O)N[C@@H](CO[C@H]1OC(CO)[C@H](O)C(O)C1O)[C@H](O)[C@H](O)CCCCCCCCCCCCCC (stereo partly drawn) [α-GalCer, α galactosylceramide, reference compound]		approximately 40 ng/ml		enhancement of the OVA specific response	more effective as adjuvants than MPL	induced CD86 in vivo similarly	significant upregulation of all the markers examined	0.8 ng/mL	little or no tumour growth			enhancement of the CTL response	significant levels of IL-12p40
